Test results taken from patent US20060121449A1, “Method for selection of compounds which inhibit clonal cell growth and use thereof” (priority 2002, published 2006).
Where “and” joins values, the source holds several entries; their conditions need not be identical. Identical values can stand only once. Entries after “also recorded” stand apart in the source; their conditions may differ.

Columns and labels:
[1] = system: polyoma virus transformed BHK21/c13 cells, clone S100T1; test: Clonal test: clonal growth of S100T1 cells in soft agar (Exp 2, 4, 6, 15, 16); format: cell-based, hamster; details: for Growth, results after 3 days / Concentration inhibiting (stopping) clonal growth: Exp 2; for Growth, results after 3 days: 400000 S100T1 cells, 1.5% agarose; for Concentration inhibiting (stopping) clonal growth: S100T1, 1.5% agarose, 3 days; for Clonal growth, result day 7: Exp 4, 3 μM, 120000 S100T1 cells, 1.1% agarose; for Significance / Growth: 4-OH—OPB No 11; for Clonal inhibition: S100T1
[2] = system: polyoma virus transformed BHK21/c13 cells, line S100T1; test: Collocation inhibition test: clonal growth in sparsely and densely seeded areas of a cell density gradient of S100T1 cells in soft agar (Exp 13, 17, 19-26); details: for Growth of treated wells with smallest cell number: 42000 cells/ml; for Growth in low density (sparsely seeded) areas of treated wells: 125000-375000 cells/ml; for Clonal growth: Exp 21; for Significance: Exp 17 day 14;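 on all read-outs here: soft agar cultures in 24-well plates with a cell density gradient in the top layer, compounds applied from DMSO stocks, clonal growth scored in sparse versus dense areas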
[3] = Exp 13, 4-OH-OPB 1-3 μM, Colchicine 0.01-0.1 μM
[4] = Exp 13, Low inhibitor conc. (4-OH—OPB 1 μM, Colchicine 10 nM), H: high cell density area
[5] = Exp 13, Low inhibitor conc. (4-OH—OPB 1 μM, Colchicine 10 nM), L: low cell density area
[6] = Exp 13, Medium inhibitor conc. (4-OH—OPB 3 μM, Colchicine 33 nM), H: high cell density area
[7] = Exp 13, Medium inhibitor conc. (4-OH—OPB 3 μM, Colchicine 33 nM), L: low cell density area
[8] = Exp 19, 120000 S100T1 cells/well

CCCCC1(O)C(=O)N(c2ccccc2)N(c2ccc(O)cc2)C1=O (stereo not drawn) [4-OH-OPB, 4-butyl-4-hydroxy-2(p-hydroxyphenyl)-1-phenyl-3,5-pyrazolidinedione]
Growth, results after 3 days ([1]; 500 nM): inhibited | Growth, results after 3 days ([1]; 1000 nM): inhibited | Growth, results after 3 days ([1]; 1500 nM): inhibited | Growth, results after 3 days ([1]; 2000 nM): inhibited | Growth, results after 3 days ([1]; 3000 nM): inhibited | Concentration inhibiting (stopping) clonal growth [1]: ≥ 500 nM | Concentration inhibiting (stopping) clonal growth ([1]; listed as 4-OH—OPB): Even 500 nM stopped clonal growth | Clonal growth, result day 7 [1]: no growth was observed | Clonal growth, result day 7 ([1]; listed as 4-OH—OPB): Single cells only; also recorded: Completely stopped clonal growth in | Susceptibility after single cells had formed small clones (colonies) ([1]; Exp 6): no longer susceptible | Concentration giving good clonal inhibition ([1]; Exp 6, S100T1, 120000 cells, treatment immediately after seeding): above 1 μM | Growth inhibition at 30 μM when treatment delayed 24 hours ([1]; Exp 6, S100T1, small colonies already formed): small growth inhibition; also recorded: some inhibition of growth | Susceptibility after single cells had formed small clones (colonies) ([1]; Exp 6, listed as 4-OH—OPB): they were not susceptible any more. | Effect on clonal growth at 2 and 20 μM ([1]; Exp 15, 32000 S100T1 cells/well): inhibiting clonal growth | Control compared with the other compounds ([1]; Exp 16): clearly better than any other | Significance ([1]; Exp 16 day 14, 0.67 μM): yes | Growth ([1]; Exp 16 day 14, 0.67 μM in wells): − | Significance ([1]; Exp 16 day 14, 6.7 μM): yes | Growth ([1]; Exp 16 day 14, 6.7 μM in wells): − | Significance ([1]; Exp 16 day 21, 0.67 μM): yes | Growth ([1]; Exp 16 day 21, 0.67 μM in wells): − | Significance ([1]; Exp 16 day 21, 6.7 μM): yes | Growth ([1]; Exp 16 day 21, 6.7 μM in wells): − | Clonal inhibition ([1]; 0.3 μM added after 24 hours, read after 48 hours): 0 | Clonal inhibition ([1]; 0.3 μM added immediately, read after 24 hours): 0 | Clonal inhibition ([1]; 0.3 μM added immediately, read after 48 hours): 0 | Clonal inhibition ([1]; 1 μM added after 24 hours, read after 48 hours): 0 | Clonal inhibition ([1]; 1 μM added immediately, read after 24 hours): + | Clonal inhibition ([1]; 1 μM added immediately, read after 48 hours): 0 | Clonal inhibition ([1]; 3 μM added after 24 hours, read after 48 hours): 0 | Clonal inhibition ([1]; 3 μM added immediately, read after 24 hours): ++ | Clonal inhibition ([1]; 3 μM added immediately, read after 48 hours): +− | Clonal inhibition ([1]; 10 μM added after 24 hours, read after 48 hours): 0 | Clonal inhibition ([1]; 10 μM added immediately, read after 24 hours): +++ | Clonal inhibition ([1]; 10 μM added immediately, read after 48 hours): + | Clonal inhibition ([1]; 30 μM added after 24 hours, read after 48 hours): + | Clonal inhibition ([1]; 30 μM added immediately, read after 48 hours): +++ | Anti-clonal effect, summary of Exp 16 ([1]; S100T1 in soft agar): 4-OH—OPB inhibited clones without escaping colonies. | Inhibition of clonal growth at 300 nM ([1]; other/earlier experiments): no inhibition | Growth in locations with high cell density [2, 3]: did not inhibit clonal growth | Growth in locations with low cell density (sparsely seeded cells) [2, 3]: full inhibition on clonal growth of sparsely seeded cells; also recorded: inhibited growth in locations with low cell density even when using low doses | Growth, summary of results after 3 days incubation [2, 4]: +++ | Growth, summary of results after 4 days incubation [2, 4]: +++ | Growth, summary of results after 3 days incubation [2, 5]: +− | Growth, summary of results after 4 days incubation [2, 5]: +− | Growth, summary of results after 3 days incubation [2, 6]: +++ | Growth, summary of results after 4 days incubation [2, 6]: +++ | Growth, summary of results after 3 days incubation [2, 7]: − | Growth, summary of results after 4 days incubation [2, 7]: − | Effect on growth in high- and low-density areas ([2]; Exp 17, 144000 S100T1 cells/well): good growth of colonies in high-density areas, but no growth in low-density areas | Clonal growth, results read on the day 14 ([2]; Exp 17, a: close to densely seeded cell areas, Low: Colchicine 0.1, Podophyllotoxin 0.3, Etoposide 20, 4-OH—OPB 0.67 μM in wells, DMSO 1.16 μl): ++ | Clonal growth, results read on the day 14 ([2]; Exp 17, a: close to densely seeded cell areas, Medium: Colchicine 0.3, Podophyllotoxin 0.9, Etoposide 60, 4-OH—OPB 2 μM in wells, DMSO 6.8 μl): ++ | Clonal growth, results read on the day 14 ([2]; Exp 17, b: sparsely seeded areas in the same agar culture, High: Colchicine 1, Podophyllotoxin 3, Etoposide 200, 4-OH—OPB 6.7 μM in wells, DMSO 29.2 μl): − | Clonal growth, results read on the day 14 ([2]; Exp 17, b: sparsely seeded areas in the same agar culture, Low: Colchicine 0.1, Podophyllotoxin 0.3, Etoposide 20, 4-OH—OPB 0.67 μM in wells, DMSO 1.16 μl): + | Clonal growth, results read on the day 14 ([2]; Exp 17, b: sparsely seeded areas in the same agar culture, Medium: Colchicine 0.3, Podophyllotoxin 0.9, Etoposide 60, 4-OH—OPB 2 μM in wells, DMSO 6.8 μl): − | Effect on growth in densely seeded areas [2, 8]: no significant inhibition | Inhibition of growth in sparsely seeded areas [2, 8]: significant at all concentrations | Clonal growth after 48 hours incubation ([2]; Exp 19, high concentration, H: high cell density part of the gradient): ++ | Clonal growth after 48 hours incubation ([2]; Exp 19, high concentration, L: low cell density part of the gradient): − | Clonal growth after 48 hours incubation ([2]; Exp 19, low concentration (exact conc. only in figure), H: high cell density part of the gradient): ++ | Clonal growth after 48 hours incubation ([2]; Exp 19, low concentration, L: low cell density part of the gradient): − | Clonal growth after 48 hours incubation ([2]; Exp 19, medium concentration, H: high cell density part of the gradient): ++ | Clonal growth after 48 hours incubation ([2]; Exp 19, medium concentration, L: low cell density part of the gradient): − | Concentration with no significant growth inhibition on denser populated areas ([2]; Exp 20): 1 to 6 µM and 1 to 18 µM | Inhibiting effect on densely seeded areas, higher doses (6-18 μM) ([2]; Exp 20): small or moderate | Inhibiting effect on densely seeded areas, low doses (1 μM) ([2]; Exp 20): abscent | Clonal growth after 48 hours ([2]; Exp 20, 4-OH—OPB 1 μM, cell number High 225000 (375′/ml), H: high cell density part): +++ | Clonal growth after 48 hours ([2]; Exp 20, 4-OH—OPB 1 μM, cell number High 225000 (375′/ml), L: low cell density part): − | Clonal growth after 48 hours ([2]; Exp 20, 4-OH—OPB 1 μM, cell number Medium 75000 (125′/ml), H: high cell density part): ++(+) | Clonal growth after 48 hours ([2]; Exp 20, 4-OH—OPB 1 μM, cell number Medium 75000 (125′/ml), L: low cell density part): − | Clonal growth after 48 hours ([2]; Exp 20, 4-OH—OPB 6 μM, cell number High 225000 (375′/ml), H: high cell density part): + | Clonal growth after 48 hours ([2]; Exp 20, 4-OH—OPB 6 μM, cell number High 225000 (375′/ml), L: low cell density part): − | Clonal growth after 48 hours ([2]; Exp 20, 4-OH—OPB 6 μM, cell number Medium 75000 (125′/ml), H: high cell density part): + | Clonal growth after 48 hours ([2]; Exp 20, 4-OH—OPB 6 μM, cell number Medium 75000 (125′/ml), L: low cell density part): − | Clonal growth after 48 hours ([2]; Exp 20, 4-OH—OPB 18 μM, cell number High 225000 (375′/ml), H: high cell density part): + | Clonal growth after 48 hours ([2]; Exp 20, 4-OH—OPB 18 μM, cell number High 225000 (375′/ml), L: low cell density part): − | Clonal growth after 48 hours ([2]; Exp 20, 4-OH—OPB 18 μM, cell number Medium 75000 (125′/ml), H: high cell density part): + | Clonal growth after 48 hours ([2]; Exp 20, 4-OH—OPB 18 μM, cell number Medium 75000 (125′/ml), L: low cell density part): − | Growth of treated wells with smallest cell number ([2]; Exp 20): did not grow even in dense areas | Growth of treated wells with smallest cell number ([2]; Exp 20, listed as 4-OH—OPB): Low cell numbers, 42000 cells/ml gave no | Growth in low density (sparsely seeded) areas of treated wells ([2]; Exp 20): very strong inhibition of growth | Growth in low density (sparsely seeded) areas of treated wells ([2]; Exp 20, listed as 4-OH—OPB): growth. 125000-375000 cells/ml gave no | Concentration with anti clonal effect on sparsely seeded cells ([2]; Exp 20, cross-titration of cell number and dose, 48 hours): 1 µM and 1 to 18 µM | Clonal growth ([2]; 117000 cells per well, Low concentration (see figure), H: area with high cell density): ++(+) | Clonal growth ([2]; High concentration, H: area with high cell density): + | Clonal growth ([2]; High concentration, L: area with low cell density): − | Clonal growth ([2]; Low concentration, L: area with low cell density): +− | Clonal growth ([2]; Medium concentration, H: area with high cell density): ++(+) | Clonal growth ([2]; Medium concentration, L: area with low cell density): − | Growth in dense areas, high concentration ([2]; Exp 22, control inhibitor): absent | Growth in dense areas, medium concentration ([2]; Exp 22, control inhibitor): doubtful | Effect on growth ([2]; Exp 23, 180000 S100T1 cells/well): complete inhibition of clonal growth in sparsely seeded areas | Clonal growth in densely seeded areas at high or medium concentrations (9 and 3 μM) ([2]; Exp 24, control): reduced clonal growth | Effect at 0.11 μM ([2]; Exp 24, control): The effect was gone | Effect at 0.11 μM ([2]; Exp 25, control): no growth inhibition was observed | Effect at 3 μM ([2]; Exp 25, control): substantial inhibition of the growth in densely seeded areas | Densely seeded parts of the gradient, high concentration ([2]; Exp 26, read after 24 hours): did not affect the densely seeded parts of the gradient | Inhibition of sparsely seeded cells, high and medium concentrations ([2]; Exp 26, read after 24 hours): nice and complete inhibition | Sparsely seeded cells, low concentration ([2]; Exp 26, read after 24 hours): break through of clonal growth | Significance ([2]; a: close to densely seeded cell areas, High: Colchicine 1, Podophyllotoxin 3, Etoposide 200, 4-OH—OPB 6.7 μM in wells, DMSO 29.2 μl): Probably | Significance ([2]; a: close to densely seeded cell areas, Low: Colchicine 0.1, Podophyllotoxin 0.3, Etoposide 20, 4-OH—OPB 0.67 μM in wells, DMSO 1.16 μl): No | Significance ([2]; a: close to densely seeded cell areas, Medium: Colchicine 0.3, Podophyllotoxin 0.9, Etoposide 60, 4-OH—OPB 2 μM in wells, DMSO 6.8 μl): No | Significance ([2]; b: sparsely seeded areas, High: Colchicine 1, Podophyllotoxin 3, Etoposide 200, 4-OH—OPB 6.7 μM in wells, DMSO 29.2 μl): Yes | Significance ([2]; b: sparsely seeded areas, Low: Colchicine 0.1, Podophyllotoxin 0.3, Etoposide 20, 4-OH—OPB 0.67 μM in wells, DMSO 1.16 μl): No | Significance ([2]; b: sparsely seeded areas, Medium: Colchicine 0.3, Podophyllotoxin 0.9, Etoposide 60, 4-OH—OPB 2 μM in wells, DMSO 6.8 μl): Yes
